From US5401748A, “2,14-disubstituted ergolines, their production and use in pharmaceutical compositions” (Schering Aktiengesellschaft, priority 1991, dated 1995) come the findings set out here.

A value given as a limit tells only on which side of the number the result lay.

This assay relates to central dopamine receptors. Briefly: Stereotypy-triggering activity in rats after one-time i.p. pretreatment (method of Horowski and Wachtel). The assay is classed as in vivo, female Wistar rats. Conditions: ip, rat. As for the experimental part: The dopaminergic agonistic effect is determined, for example, with the help of method, described by Horowski and Wachtel, of the registration of stereotypies by observation of behavior (Eur. J. Pharmacol. 36: 373-383, 1976):
Immediately after intraperitoneal test substance or vehicle administration,female Wistar rats (90-110 g) are placed individually in observation cages made from transparent acrylic glass (25×19×13.5 cm). At 30, 60, 120, 240, 360 and 480 minutes after pretreatment, the presence of behavior stereotypies (chewing, licking, gnawing) is registered by observation of the animals for 2 minutes (i.e., of 30th-32nd, 60th-62nd, 120th-122nd minutes, etc.). Animals which during the 2-minute observation period show continuous chewing, licking and gnawing movements (longer than 30 seconds) are considered stereotypic.
The number of animals per treatment group with behavior stereotypies is determined during the various observation times. The different treatment groups consist of n=8 animals each. Average effective dose (ED50) is determined with 95% range of confidence for the various observation times with the help of probit analysis.
At 30, 60, 120, 240, 360 and 480 minutes after i.p. pretreatment with test substance or vehicle, the presence of behavior stereotypies in rats (chewing, licking, gnawing) was determined by observation for 2 minutes (i.e., of 30th-32nd, 60th-62nd, 120th-122nd minutes, etc.).

`CCCN1C[C@@H](NC(=O)N(CC)CC)C[C@@H]2c3ccc(C)c4[nH]c(C)c(c34)C[C@H]21` [3-(2,14-Dimethyl-6-propyl-8α-ergolinyl)-1,1-diethylurea]: the ED50 (0.5 h, 30 min, n=8, 95% range of confidence by probit analysis) amounted to 0.055 mg/kg; the ED50 (1 h, 60 min, n=8, probit analysis) was under 0.025 mg/kg; the median effective dose (ED50) (2 h, 120 min, n=8, probit analysis) is under 0.025 mg/kg; the ED50 (4 h, 240 min, n=8, probit analysis) is under 0.025 mg/kg; the 50% effective dose (ED50) (6 h, 360 min, n=8, 95% range of confidence by probit analysis) turned out to be 0.071 mg/kg; the 50% effective dose (ED50) (8 h, 480 min, n=8, 95% range of confidence by probit analysis) came out at 0.072 mg/kg.

What is called ED50 is the dose at which the effect has come halfway, by size or by number of responders.
